Results on one compound are retold here after patent US4602006A, “Ynenolactone protease inhibitors” (Syntex (U.S.A.) Inc., priority 1984, dated 1986).

In the assay the target is T1, Human Leukocyte Elastase (Homo sapiens, UniProt P08246).
T1 construct: fresh human leukocytes were obtained from a healthy donor; from tissue; host or cells: human leukocytes from a healthy donor (homogenized)
T1 sequence (P08246 30-247 limits assumed): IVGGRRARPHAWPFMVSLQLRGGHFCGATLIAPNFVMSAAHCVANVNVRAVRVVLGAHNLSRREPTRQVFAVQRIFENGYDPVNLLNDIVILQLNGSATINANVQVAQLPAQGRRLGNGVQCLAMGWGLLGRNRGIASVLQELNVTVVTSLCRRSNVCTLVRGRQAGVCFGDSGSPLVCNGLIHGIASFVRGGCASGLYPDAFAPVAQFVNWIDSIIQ
The experiment in a line: Inactivation of Human Leukocyte Elastase (fluorogenic substrate assay). Type of assay: biochemical.

For the compound `C#C/C=C1\CC(Cc2ccccc2)C(=O)O1` (stereo not shown) [3-Benzyl-5(E)-(prop-2-ynylidene)tetrahydro-2-furanone], where the note is “0.24 nanomoles HL elastase + 4 microliters 2 mM inhibitor, 25° C., after 17 minutes chromatographed on Sephadex G-50”, the irreversibility of inactivation result is recorded as “irreversibility of this inactivation was shown”. Moreover, the kinact (25° C., pH 7.8, substrate MeOSuc-Ala-Ala-Pro-Val-methylcoumarinamide, read-out: maximum inactivation rate) came out at 0.09 s⁻¹. Under “half-maximal inactivation rate, 25° C., pH 7.8, read-out: inhibitor concentration required for half-maximal rate”, the KI (inactivation) is 4.1 µM. The “mode of enzyme inactivation” value (inhibitor added after recording the uninhibited rate) was “inactivated in a time and concentration dependent manner”.
